From patent US5262417A, “Antibacterial quinolone compounds” (The Upjohn Company, priority 1991, dated 1993)
Values after ≈ are worked out from the molar mass of the structure shown. Where two headings read alike, the source gives them in different places.

Key:
Assay in all cases: Minimum inhibitory concentration (MIC) by agar dilution
Format in all cases: cell-based
[1] = test system: Klebsiella pneumoniae; settings: 20 h, read-out: MINIMUM INHIBITORY CONCENTRATION
Experimental: (§1) The antibacterial activity of the compounds of Formula IC was determined by using standard testing procedures such as the determination of minimum inhibitory concentration (MIC) by agar dilution as described in "Methods for Dilution Antimicrobial Susceptibility Tests for Bacteria That Grow Aerobically" (MFT) published January 1983 by the National Committee for Clinical Laboratory Standards, 771 East Lancaster Avenue, Villanova, Pa. 19084, USA. Briefly, MIC values are determined in unsupplemented Mueller Hinton Agar (MHA). The compounds tested are diluted serially into molten MHA at 47° C. The agar is poured into petri dishes and allowed to harden. The various bacteria used for testing are grown overnight on MHA at 35° C. and transferred to Trypticase soy broth (TSB) until a turbidity of 0.5 McFarland standard is obtained. The bacteria are diluted one to 20 in TSB and inoculated on the plates (1 μl using a Steers replicator).
as §1, with “Compounds of this invention can also be tested for in vitro antimicrobial” for “The antibacterial”, “activity” for “activity of the compounds of Formula IC was determined by”, “Jan.” for “January”, “Penna.” for “Pa.”, “(1μl” for “(1 μl”, “replicator). […] The MIC test results of selected of Formula B compounds of this invention are found in Tables B2-B9.” for “replicator).”

[2] = test system: Acinetobacter calcoaceticus; settings: Acinetobacter calcoaceticus, 20 h, read-out: MINIMUM INHIBITORY CONCENTRATION, Cult No. 12170, MHA
Experimental: as §1
as §1, with “Compounds of this invention can also be tested for in vitro antimicrobial” for “The antibacterial”, “activity” for “activity of the compounds of Formula IC was determined by”, “Jan.” for “January”, “Penna.” for “Pa.”, “(1μl” for “(1 μl”, “replicator). […] The MIC test results of selected of Formula B compounds of this invention are found in Tables B2-B9.” for “replicator).”

[3] = test system: Pseudomonas aeruginosa; settings: Pseudomonas aeruginosa, 20 h
Experimental: as §1
as §1, with “Compounds of this invention can also be tested for in vitro antimicrobial” for “The antibacterial”, “activity” for “activity of the compounds of Formula IC was determined by”, “Jan.” for “January”, “Penna.” for “Pa.”, “(1μl” for “(1 μl”, “replicator). […] The MIC test results of selected of Formula B compounds of this invention are found in Tables B2-B9.” for “replicator).”

[4] = test system: Citerobacter freundii; settings: 20 h, read-out: MINIMUM INHIBITORY CONCENTRATION
Experimental: as §1
as §1, with “Compounds of this invention can also be tested for in vitro antimicrobial” for “The antibacterial”, “activity” for “activity of the compounds of Formula IC was determined by”, “Jan.” for “January”, “Penna.” for “Pa.”, “(1μl” for “(1 μl”, “replicator). […] The MIC test results of selected of Formula B compounds of this invention are found in Tables B2-B9.” for “replicator).”

[5] = test system: Staphylococcus epidermidis; settings: 20 h, read-out: MINIMUM INHIBITORY CONCENTRATION
Experimental: as §1
as §1, with “Compounds of this invention can also be tested for in vitro antimicrobial” for “The antibacterial”, “activity” for “activity of the compounds of Formula IC was determined by”, “Jan.” for “January”, “Penna.” for “Pa.”, “(1μl” for “(1 μl”, “replicator). […] The MIC test results of selected of Formula B compounds of this invention are found in Tables B2-B9.” for “replicator).”

[6] = test system: Escherichia coli; settings: Escherichia coli, 20 h
Experimental: as §1
as §1, with “Compounds of this invention can also be tested for in vitro antimicrobial” for “The antibacterial”, “activity” for “activity of the compounds of Formula IC was determined by”, “Jan.” for “January”, “Penna.” for “Pa.”, “(1μl” for “(1 μl”, “replicator). […] The MIC test results of selected of Formula B compounds of this invention are found in Tables B2-B9.” for “replicator).”

[7] = test system: Proteus penneri; settings: Proteus penneri, 20 h, read-out: MINIMUM INHIBITORY CONCENTRATION, Cult No. 9679, MHA
Experimental: as §1
as §1, with “Compounds of this invention can also be tested for in vitro antimicrobial” for “The antibacterial”, “activity” for “activity of the compounds of Formula IC was determined by”, “Jan.” for “January”, “Penna.” for “Pa.”, “(1μl” for “(1 μl”, “replicator). […] The MIC test results of selected of Formula B compounds of this invention are found in Tables B2-B9.” for “replicator).”

[8] = test system: Streptococcus faecalis; settings: Enterococcus faecalis, 20 h, read-out: MINIMUM INHIBITORY CONCENTRATION
Experimental: as §1
as §1, with “Compounds of this invention can also be tested for in vitro antimicrobial” for “The antibacterial”, “activity” for “activity of the compounds of Formula IC was determined by”, “Jan.” for “January”, “Penna.” for “Pa.”, “(1μl” for “(1 μl”, “replicator). […] The MIC test results of selected of Formula B compounds of this invention are found in Tables B2-B9.” for “replicator).”

[9] = test system: Serratia marcescens; settings: 20 h, read-out: MINIMUM INHIBITORY CONCENTRATION
Experimental: as §1
as §1, with “Compounds of this invention can also be tested for in vitro antimicrobial” for “The antibacterial”, “activity” for “activity of the compounds of Formula IC was determined by”, “Jan.” for “January”, “Penna.” for “Pa.”, “(1μl” for “(1 μl”, “replicator). […] The MIC test results of selected of Formula B compounds of this invention are found in Tables B2-B9.” for “replicator).”

[10] = test system: Staphylococcus aureus; settings: Staphylococcus aureus, 20 h
Experimental: as §1
as §1, with “Compounds of this invention can also be tested for in vitro antimicrobial” for “The antibacterial”, “activity” for “activity of the compounds of Formula IC was determined by”, “Jan.” for “January”, “Penna.” for “Pa.”, “(1μl” for “(1 μl”, “replicator). […] The MIC test results of selected of Formula B compounds of this invention are found in Tables B2-B9.” for “replicator).”

[11] = test system: Streptococcus pyogenes; settings: Streptococcus pyogenes, 20 h, read-out: MINIMUM INHIBITORY CONCENTRATION, Cult No. 152, MHA
Experimental: as §1
as §1, with “Compounds of this invention can also be tested for in vitro antimicrobial” for “The antibacterial”, “activity” for “activity of the compounds of Formula IC was determined by”, “Jan.” for “January”, “Penna.” for “Pa.”, “(1μl” for “(1 μl”, “replicator). […] The MIC test results of selected of Formula B compounds of this invention are found in Tables B2-B9.” for “replicator).”

[12] = test system: Streptococcus pneumoniae; settings: Streptococcus pneumoniae, 20 h, read-out: MINIMUM INHIBITORY CONCENTRATION, Cult No. 41, MHA
Experimental: as §1
as §1, with “Compounds of this invention can also be tested for in vitro antimicrobial” for “The antibacterial”, “activity” for “activity of the compounds of Formula IC was determined by”, “Jan.” for “January”, “Penna.” for “Pa.”, “(1μl” for “(1 μl”, “replicator). […] The MIC test results of selected of Formula B compounds of this invention are found in Tables B2-B9.” for “replicator).”

[13] = test system: Enterobacter cloacae; settings: 20 h, read-out: MINIMUM INHIBITORY CONCENTRATION
Experimental: Briefly, MIC values are determined in unsupplemented Mueller Hinton Agar (MHA). The compounds tested are diluted serially into molten MHA at 47° C. The agar is poured into petri dishes and allowed to harden. The various bacteria used for testing are grown overnight on MHA at 35° C. and transferred to Trypticase soy broth (TSB) until a turbidity of 0.5 McFarland standard is obtained. The bacteria are diluted one to 20 in TSB and inoculated on the plates (1 μl using a Steers replicator).
as §1, with “Compounds of this invention can also be tested for in vitro antimicrobial” for “The antibacterial”, “activity” for “activity of the compounds of Formula IC was determined by”, “Jan. […]” for “January 1983 by the National Committee for Clinical Laboratory Standards, 771 East Lancaster Avenue, Villanova, Pa. 19084, USA.”, “(1μl” for “(1 μl”

[14] = read-out: MINIMUM INHIBITORY CONCENTRATION, Cult No. 6676, MHA
[15] = read-out: MINIMUM INHIBITORY CONCENTRATION, Cult No. 9191, MHA
[16] = read-out: MINIMUM INHIBITORY CONCENTRATION, Cult No. 12120, MHA
[17] = read-out: MINIMUM INHIBITORY CONCENTRATION, Cult No. 6674, MHA
[18] = read-out: MINIMUM INHIBITORY CONCENTRATION, Cult No. 9451, MHA
[19] = read-out: MINIMUM INHIBITORY CONCENTRATION, Cult No. 9855, MHA
[20] = read-out: MINIMUM INHIBITORY CONCENTRATION, Cult No. 9952, MHA
[21] = read-out: MINIMUM INHIBITORY CONCENTRATION, Cult No. 6685, MHA
[22] = read-out: MINIMUM INHIBITORY CONCENTRATION, Cult No. 9213, MHA
[23] = read-out: MINIMUM INHIBITORY CONCENTRATION, Cult No. 9218, MHA
[24] = read-out: MINIMUM INHIBITORY CONCENTRATION, Cult No. 9271, MHA

| SMILES | MIC [1] | MIC [2] | MIC [3, 14] | MIC [3, 15] | MIC [3, 16] | MIC [4] | MIC [5] | MIC [6, 17] | MIC [6, 18] | MIC [6, 19] | MIC [6, 20] | MIC [7] | MIC [8] | MIC [9] | MIC [10, 21] | MIC [10, 22] | MIC [10, 23] | MIC [10, 24] | MIC [11] | MIC [12] | other results |
| --- | --- | --- | --- | --- | --- | --- | --- | --- | --- | --- | --- | --- | --- | --- | --- | --- | --- | --- | --- | --- | --- |
| NC1CCN(c2nc3c(cc2F)c(=O)c(C(=O)O)cn3C23CC(C2)C3)C1 (racemic) [No. 36, 7-(3-amino-1-pyrrolidinyl)-1-(bicyclo[1.1.1]pent-1-yl)-1,4-dihydro-6-fluoro-4-oxo-1,8-naphthyridine-3-carboxylic acid] | 0.06 µg/mL (≈ 0.167 µM) | 0.125 µg/mL (≈ 0.349 µM) | 1 µg/mL (≈ 2.79 µM) | 0.5 µg/mL (≈ 1.4 µM) | 0.25 µg/mL (≈ 0.698 µM) | 0.03 µg/mL (≈ 0.0837 µM) | 0.06 µg/mL (≈ 0.167 µM) | 0.03 µg/mL (≈ 0.0837 µM) | 0.03 µg/mL (≈ 0.0837 µM) | 0.06 µg/mL (≈ 0.167 µM) | 0.03 µg/mL (≈ 0.0837 µM) | 0.25 µg/mL (≈ 0.698 µM) | 0.5 µg/mL (≈ 1.4 µM) | 0.125 µg/mL (≈ 0.349 µM) | 0.125 µg/mL (≈ 0.349 µM) | 0.125 µg/mL (≈ 0.349 µM) | 0.125 µg/mL (≈ 0.349 µM) | 0.125 µg/mL (≈ 0.349 µM) | 0.25 µg/mL (≈ 0.698 µM) | 0.5 µg/mL (≈ 1.4 µM) | MIC [13]: 0.03 µg/mL (≈ 0.0837 µM) |
| O=C(O)c1cn(C23CC(C2)C3)c2cc(N3CCNCC3)c(F)cc2c1=O [No. 2, 1-(bicyclo[1.1.1]pent-1-yl)-1,4-dihydro-6-fluoro-4-oxo-7-(1-piperazinyl)-3-quinolinecarboxylic acid] | 0.25 µg/mL (≈ 0.7 µM) | 0.5 µg/mL (≈ 1.4 µM) | 4 µg/mL (≈ 11.2 µM) | 2 µg/mL (≈ 5.6 µM) | 1 µg/mL (≈ 2.8 µM) | 0.06 µg/mL (≈ 0.168 µM) | 0.5 µg/mL (≈ 1.4 µM) | 0.125 µg/mL (≈ 0.35 µM) | 0.125 µg/mL (≈ 0.35 µM) | 0.125 µg/mL (≈ 0.35 µM) | 0.125 µg/mL (≈ 0.35 µM) | 0.5 µg/mL (≈ 1.4 µM) | 4 µg/mL (≈ 11.2 µM) | 0.5 µg/mL (≈ 1.4 µM) | 0.5 µg/mL (≈ 1.4 µM) | 1 µg/mL (≈ 2.8 µM) | 1 µg/mL (≈ 2.8 µM) | 1 µg/mL (≈ 2.8 µM) | 2 µg/mL (≈ 5.6 µM) | 4 µg/mL (≈ 11.2 µM) | MIC [13]: 0.125 µg/mL (≈ 0.35 µM) |
